{"source": "patent US12263248B2", "about": "“Compounds and compositions for intracellular delivery of therapeutic agents” (ModernaTX, Inc., priority 2018, dated 2025)", "key": {"hEPO mRNA [1]": {"tested_on": "hEPO mRNA", "assay": "hEPO expression and cytokine induction after intravenous administration to mice", "assay_type": "in vivo", "details": "mice, intravenous, 0.5 mpk", "procedure": "The expression of hEPO and cytokine induction in mice intravenously administered a nanoparticle composition at a dose of 0.5 mpk were measured at 3, 6, and 24 hours. […] The expression of hEPO in mice intramuscularly administered a nanoparticle composition from Table 1B at a dose of 0.01 mpk were measured at 3, 6, and 24 hours.\nBlood collection and analysis for hEPO. Blood was collected from mice or rats via the tail vein and hEPO concentrations were determined using a hEPO ELISA assay."}, "[2]": {"assay": "Pharmacokinetics of lipids in mice", "assay_type": "in vivo", "parameters": "AUC / AUCall Mean: concentration or dose not given beside the values", "details": "mouse", "procedure": "FIGS. 45A and 45B are a pair of graphs illustrating pharmacokinetics of lipids of the disclosure in mice. Mice were administered compositions comprising Compound 50 (FIG. 45A) or Compound 301 (FIG. 45B), in nanoparticle compositions containing DSPC and PEG 1."}, "[3]": {"assay": "Clinical chemistry and hematology in rat, 2 mpk i.v., 48 h", "assay_type": "in vivo", "details": "intravenous, 48 h post dose", "procedure": "Sample formulations of nanoparticle compositions including different lipids were administered intravenously to rat at a dose of 2 mpk. The expression of various clinical markers was evaluated at 48 h post dose and compared to that induced by administration of MC3 formulations or phosphate buffered saline (PBS)."}, "hEPO mRNA [4]": {"tested_on": "hEPO mRNA", "assay": "hEPO expression after intravenous administration to rats", "assay_type": "in vivo, rat", "details": "for Lipid/MC3 hEPO expression: 6 hours after administration", "procedure,_shortened": "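Rats dosed intravenously once with nanoparticle composition, 0.2 or 2.0 mpk, formulated by the standard MC3 method. Tail-vein blood sampled at 6 h or at time points from 0.25 to 48 h. hEPO measured by ELISA.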"}, "[5]": {"assay": "Residual lipid levels in rat liver and spleen (UPLC-MS)", "assay_type": "in vivo", "procedure,_shortened": "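Rats received a single intravenous dose of lipid nanoparticle composition, and liver tissue was later collected to quantify residual lipid. Weighed tissue was homogenized in Milli-Q water (900 μL per 100 mg tissue) using an Omni probe homogenizer. 50 μL aliquots were mixed with 400 μL spiking solution, vortexed, centrifuged, and analyzed by UPLC on a C8 column with positive-mode ESI detection on a Sciex API5500 mass spectrometer.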"}, "[6]": {"details": "rat, intravenous, 0.2 mpk, 48 hours, Table 19A"}, "[7]": {"details": "rat, intravenous, 2 mpk, 48 hours, Table 19A"}}, "note": "Marks after values point to notes of the source that are not given here."}
{"smiles": "CCCCC/C=C\\C/C=C\\CCCCCCCCC(CCCCCCCC/C=C\\C/C=C\\CCCCC)OC(=O)CCCN(C)C", "note": "[MC3, DLin-MC3-DMA, reference compound]", "values": [{"measurement": "hEPO expression 3 h", "setting": "hEPO mRNA [1]; 3 h", "value": "1.57e+06", "unit": "pg/mL"}, {"measurement": "Average hEPO concentration (pg/ml, 6 h)", "setting": "hEPO mRNA [1]; 6 h", "value": "1.83e+06", "unit": "pg/mL"}, {"measurement": "Cytokine expression IL-6 (6 h)", "setting": "hEPO mRNA [1]; 6 h", "value": 19.85, "unit": "pg/mL"}, {"measurement": "Cytokine expression IP-10 (6 h)", "setting": "hEPO mRNA [1]; 6 h", "value": 117.94, "unit": "pg/mL"}, {"measurement": "hEPO expression 6 h", "setting": "hEPO mRNA [1]; 6 h", "value": "1.83e+06", "unit": "pg/mL"}, {"measurement": "Fold increase in hEPO concentration relative to MC3", "setting": "hEPO mRNA [1]; 6 h, Table 12", "value": 1}, {"measurement": "hEPO expression 24 h", "setting": "hEPO mRNA [1]; 24 h", "value": 810000, "unit": "pg/mL"}, {"measurement": "AUCall Mean", "setting": "[2]; Liver", "value": "1,410,000 hr * ng/mL"}, {"measurement": "Cmax Mean", "setting": "[2]; Liver", "value": "33,000 ng/mL"}, {"measurement": "Tmax", "setting": "[2]; Liver", "value": 24, "unit": "h"}, {"measurement": "HL", "setting": "[2]; Liver, * = 2 terminal datapoints estimation", "value": "52.5* hr"}, {"measurement": "AUCall Mean", "setting": "[2]; Plasma", "value": "69,100 hr * ng/mL"}, {"measurement": "Cmax Mean", "setting": "[2]; Plasma", "value": "28,900 ng/mL"}, {"measurement": "HL", "setting": "[2]; Plasma", "value": 8.4, "unit": "h"}, {"measurement": "Tmax", "setting": "[2]; Plasma", "value": 0.5, "unit": "h"}, {"measurement": "AUCall Mean", "setting": "[2]; Spleen", "value": "787,000 hr * ng/mL"}, {"measurement": "Cmax Mean", "setting": "[2]; Spleen", "value": "21,200 ng/mL"}, {"measurement": "Tmax", "setting": "[2]; Spleen", "value": 8, "unit": "h"}, {"measurement": "HL", "setting": "[2]; Spleen, * = 2 terminal datapoints estimation", "value": "33.3* hr"}, {"measurement": "Concentration Alanine aminotransferase", "setting": "[3]", "value": 339}, {"measurement": "Concentration Aspartate aminotransferase", "setting": "[3]", "value": 325}, {"measurement": "Concentration Lymphocytes", "setting": "[3]", "value": 19976}, {"measurement": "Concentration Monocytes", "setting": "[3]", "value": 1429}, {"measurement": "Concentration Neutrophils", "setting": "[3]", "value": 4962.5}, {"measurement": "Lipid/MC3 hEPO expression", "setting": "hEPO mRNA [4]; 0.2 mpk dose to rat", "value": 1}, {"measurement": "Lipid/MC3 hEPO expression", "setting": "hEPO mRNA [4]; 2 mpk dose to rat", "value": 1}, {"measurement": "AUC (hEPO)", "setting": "hEPO mRNA [4]; Table 19B", "value": "3.46e+07", "unit": "pg·h/mL"}, {"measurement": "[hEPO]", "setting": "hEPO mRNA [4]; Table 19B, species, dose and time not given", "value": 14800, "unit": "pg/mL"}, {"measurement": "hEPO expression", "setting": "hEPO mRNA [4]; rat, 6 h, 2 mpk, i.v.", "value": "1.33e+07", "unit": "pg/mL"}, {"measurement": "hEPO expression 0.25 h", "setting": "hEPO mRNA [4]; rat, intravenous, 0.2 mpk, 0.25 h", "value": 0, "unit": "pg/mL"}, {"measurement": "hEPO expression 0.5 h", "setting": "hEPO mRNA [4]; rat, intravenous, 0.2 mpk, 0.5 h", "value": 42457, "unit": "pg/mL"}, {"measurement": "hEPO expression 1 h", "setting": "hEPO mRNA [4]; rat, intravenous, 0.2 mpk, 1 h", "value": 93720, "unit": "pg/mL"}, {"measurement": "hEPO expression 2 h", "setting": "hEPO mRNA [4]; rat, intravenous, 0.2 mpk, 2 h", "value": 524093, "unit": "pg/mL"}, {"measurement": "hEPO expression 4 h", "setting": "hEPO mRNA [4]; rat, intravenous, 0.2 mpk, 4 h", "value": 601307, "unit": "pg/mL"}, {"measurement": "hEPO expression", "setting": "hEPO mRNA [4]; rat, intravenous, 0.2 mpk, 6 hours", "value": "7.68e+06", "unit": "pg/mL"}, {"measurement": "hEPO expression 8 h", "setting": "hEPO mRNA [4]; rat, intravenous, 0.2 mpk, 8 h", "value": 1536833, "unit": "pg/mL"}, {"measurement": "hEPO expression 24 h", "setting": "hEPO mRNA [4]; rat, intravenous, 0.2 mpk, 24 h", "value": 703619, "unit": "pg/mL"}, {"measurement": "hEPO expression 48 h", "setting": "hEPO mRNA [4]; rat, intravenous, 0.2 mpk, 48 h", "value": 64687, "unit": "pg/mL"}, {"measurement": "hEPO expression", "setting": "hEPO mRNA [4]; rat, intravenous, 2 mpk, 6 hours", "value": "9.29e+06", "unit": "pg/mL"}, {"measurement": "Lipid/MC3 hEPO conc. ratio 0.2 mpk", "setting": "hEPO mRNA [4]; rats, intravenous, 0.2 mpk, 6 hours", "value": 1}, {"measurement": "Lipid/MC3 hEPO conc. ratio 2 mpk", "setting": "hEPO mRNA [4]; rats, intravenous, 2 mpk, 6 hours", "value": 1}, {"measurement": "% dose remaining Rat liver tissue, 48 h", "setting": "[5]; Sprague Dawley rat liver 48 h after 2 mg/kg bolus dose mRNA", "value": "61^e %"}, {"measurement": "% dose remaining, liver, 24 h", "setting": "[5]; Table 19B, liver, 24 h", "value": 44, "unit": "%"}, {"measurement": "% lipid remaining in liver after 48 hours", "setting": "[5]; liver, 48 hours", "value": 87, "unit": "%"}, {"measurement": "Liver level", "setting": "[5]; [6]", "value": 11300, "unit": "ng/g"}, {"measurement": "Spleen level", "setting": "[5]; [6]", "value": 0.74, "unit": "ng/g"}, {"measurement": "Liver level", "setting": "[5]; [7]", "value": 140520, "unit": "ng/g"}, {"measurement": "Spleen level", "setting": "[5]; [7]", "value": 0.65, "unit": "ng/g"}, {"measurement": "Liver level", "setting": "[5]; rats, 0.2 mpk, after 48 h", "value": 25033, "unit": "ng/g"}, {"measurement": "Spleen level", "setting": "[5]; rats, 0.2 mpk, after 48 h", "value": 9440, "unit": "ng/g"}, {"measurement": "% Lipid Remaining in liver, 48 h", "setting": "[5]; rats, 2 mpk, 48 h, assuming 300 g rat and 15 g liver", "value": 87, "unit": "%"}, {"measurement": "Liver level", "setting": "[5]; rats, 2 mpk, after 48 h", "value": 285333, "unit": "ng/g"}, {"measurement": "Spleen level", "setting": "[5]; rats, 2 mpk, after 48 h", "value": 129000, "unit": "ng/g"}, {"measurement": "lipid remained in the liver after 48 hours", "setting": "[5]; rats, i.v., 0.2 mpk or 2.0 mpk", "value": "greater than 60%"}, {"measurement": "% remaining dose in liver, 48 h", "setting": "[5]; rats, intravenous, 2.0 mpk, 48 h", "value": 74, "unit": "%"}]}
